According to BindingDB's records for doi:10.7270/Q2HD7T4S (Sanford-Burnham Center For Chemical Genomics, 2008):
pIC50: −log10 of the molar value.

Molecular target: E3 ubiquitin-protein ligase XIAP (Homo sapiens, UniProt P98170)
Test: XIAP antagonists, biochemical, IAP family, fluorescence polarization (AID 1018)

Chain of E3 ubiquitin-protein ligase XIAP (P98170 whole entry): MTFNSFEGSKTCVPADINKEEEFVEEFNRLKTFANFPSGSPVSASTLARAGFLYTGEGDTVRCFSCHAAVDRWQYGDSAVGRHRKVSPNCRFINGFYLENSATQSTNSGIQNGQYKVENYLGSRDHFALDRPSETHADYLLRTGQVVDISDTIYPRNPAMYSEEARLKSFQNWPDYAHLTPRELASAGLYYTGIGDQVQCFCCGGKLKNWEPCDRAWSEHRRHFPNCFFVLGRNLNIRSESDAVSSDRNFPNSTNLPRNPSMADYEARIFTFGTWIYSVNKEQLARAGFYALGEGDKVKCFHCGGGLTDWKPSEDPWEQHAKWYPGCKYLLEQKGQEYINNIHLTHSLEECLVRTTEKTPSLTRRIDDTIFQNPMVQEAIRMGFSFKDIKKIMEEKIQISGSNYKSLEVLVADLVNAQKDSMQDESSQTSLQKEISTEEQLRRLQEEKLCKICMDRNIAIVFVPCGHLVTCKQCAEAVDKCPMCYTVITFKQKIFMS

Compound	pIC50
COc1ccc(C(=O)C2C(=O)C(=O)N(CC3CCCO3)C2c2cccc(OC)c2)cc1 (stereo not given) [(4Z)-4-[hydroxy-(4-methoxyphenyl)methylene]-5-(3-methoxyphenyl)-1-(tetrahydrofurfuryl)pyrrolidine-2,3-quinone]	< 4.00
O=C(CC=Nc1ccc(Nc2ccccc2)cc1)c1cccs1 [(E)-3-(4-anilinoanilino)-1-thiophen-2-yl-2-propen-1-one]	< 4.00
COc1cc(CN=Nc2nc(Nc3ccc(C)cc3)nc(-n3nc(C)cc3C)n2)cc(OC)c1OC	< 4.00
O=C(O)c1cccc(-n2c(O)c3c(c2O)CC(Cl)=CC3)c1 [3-[5-chloranyl-1,3-bis(oxidanylidene)-3a,4,7,7a-tetrahydroisoindol-2-yl]benzoic acid]	< 4.00
CCOc1ccccc1NC(=O)C1C(C)=NC(=S)NC1c1cccs1 (stereo not given) [N-(2-ethoxyphenyl)-6-methyl-2-sulfanylidene-4-thiophen-2-yl-3,4-dihydro-1H-pyrimidine-5-carboxamide]	< 4.00
COc1cc(CN=Nc2cc(C)nc(NS(=O)(=O)c3ccc(C)cc3)n2)ccc1O	< 4.00
Cc1cc(=O)[nH]c(N=NC(CC(C)C)CC(C)C)n1	< 4.00

Other lines, results leading:

pIC50	Compound
< 4.00	Cc1cccc(N(CC(N)=O)c2sc(=O)n(-c3ccccc3)c2O)c1 [SMR000009552]
< 4.00	COc1cccc(C(=O)CC=Nc2cc(C)ccc2O)c1 [MLS000088060]
< 4.00	COc1ccc(CN=Nc2nc(N3CCCC3)nc(N3CCCC3)n2)cc1 [MLS000704198]
